Reference: ChEMBL document CHEMBL1144384, “Hypoxia-selective activation of 5-fluorodeoxyuridine prodrug possessing indolequinone structure: radiolytic reduction and cytotoxicity characteristics” (Bioorg Med Chem Lett, 2005)

Assay: Inhibitory concentration required to reduce cellular survival to 50% towards murine tumor EMT6/KU cell line
Assay type: functional, cell-based
Settings: Mus musculus

**Q.** With `O=c1[nH]c(=O)n([C@H]2C[C@H](O)[C@@H](CO)O2)cc1F` [FLOXURIDINE] as the molecule, how does the IC50 read?
**A.** The IC50 was 8.1 µM.
